Results: patent US6559099B1, “Methods for enhancing plant health, protecting plants from biotic and abiotic stress related injuries and enhancing the recovery of plants injured as a result of such stresses” (Wisconsin Alumni Research Foundation, priority 2000, dated 2003)
Where “and” joins values, the source holds several entries; their conditions need not be identical. Equal entries are not always repeated.

Tests used:
Type in all cases: in vivo
Tomato plants cv. H9478 = test: Protection of drought injury and enhancement of recovery
Method: Tomato plants cv. […] (cultivar of Heinz Co.) were grown in 20 liter pots and placed in a growth chamber maintained at 24/18° C. day/night temperatures and a 16 hour photoperiod with 400 μmol m^-2s^-1 of cool-white fluorescent lights. Two month-old plants were sprayed with either distilled water, […]) or LPE 18:1 (100 mg/L) before exposure to drought stress. Drought stress was given by withholding water for 2 days. The plants were sprayed once again with distilled water, […]) or LPE 18:1 (100 mg/L) right after water was given (alleviation of water stress). During drought stress, all water, […] 18:1-sprayed plants were severely wilted but regained turgor soon after water was given again.

Tomato Plants cv. H9144 [1] = test: Protection of pesticide (Marathon, imidacloprid) injury and enhancement of recovery; details: 200 mg/L in 1% ethanol; 10 days after spraying (FIG. 3)
Description: Marathon with active […] of imidacloprid (available from Olympic Chemical Co., PO Box K, Mainland, Pa.) is a pesticide used for controlling whitefly in plants. This is a systemic pesticide and is introduced to the plant via soil application. As the pesticide accumulates in the foliage the insects feeding on the plants are killed. Sometimes as this chemical accumulates in the plant it can result in phytotoxicity to the plant. To test this, tomato plants cv. […] (cultivar of Heinz Co.) were grown for two (2) months in 20 liter pots in a greenhouse. […] Many leaves lost chlorophyll and plants had poor shoot growth. Three weeks after the treatment of pesticide, […]18:1 or LPI (200 mg/L each) solution containing 1% ethanol were sprayed to the point that solution started to run off the leaves. Control plants were sprayed with distilled water containing 1% ethanol. The LPE solution was prepared by wetting 200 mg of LPE in 1 ml ethanol and then adding distilled water to make 1 liter of total volume. The LPE solution was then sonicated 1 minute before spraying.

'Hazel' oat seeds = test: Seedling vigour (root and shoot fresh weight) of 'Hazel' oats soaked in LPE or LPC; details: 10 ppm (each), incubated at 20° C.; for Root fresh wt per seedling / Shoot Fresh wt per seedling: soaked 30 minutes; for Root fresh wt per seedlings / Shoot Fresh wt per seedlings: soaked 2 hours
Description: Values are mean±SE (4 replications). […] Values are mean±SE (4 replications).

Tomato Plants cv. H9144 [2] = test: Protection of chilling injury and enhancement of recovery, tomato seedlings; details: for Leaf Chlorophyll Mean ± SE / Leaf Phospholipids Mean ± SE / Leaf Water (fresh/dry wt ratio) Mean ± SE: measured 10 days after chilling
Method: Tomato Plants cv. […] (cultivar of Heinz Co.) were grown in 20-liter pots containing […], Ohio) in a greenhouse which was supplied with additional tungsten light for a 16 hour photoperiod. […] Control leaf branch was sprayed with distilled water. The LPE solution was prepared by suspending 200 mg of crude […] (Avanti Polar Lipids, Inc., Alabaster, Ala.) in one liter of distilled water and then sonicating for 1 minute before spraying. After 4 days of chilling treatment at 4/2° C. day/night temperatures and a 16 hour photoperiod with 200 μmol m^-2 s^-1 fluorescent light intensity, plants were transferred to a growth chamber maintained at 24/18° C. day/night temperatures and a 16 hour photoperiod with 400 μmol m^-2 s^-1 of fluorescent light intensity. […] When measured 10 days after chilling, LPE-sprayed leaf tissues, either before or after chilling, had higher levels of water, chlorophyll, and phospholipid content than water-sprayed control (see Table 1 below). […] Chilling and recovery conditions were the same as in Example 1a above.

[3] = system: Cucumber (Cucumis sativus inbred line-WI2238) plants; test: Protection of chilling injury and recovery, cucumber seedlings; details: 100 mg/L sprayed twice, 1 hour before and right after 2 days chilling
Method: Cucumber (Cucumis sativus inbred line-WI2238) plants were grown in 4 liter plastic pots containing a sterilized mixture of peat:sand:composited soil:field soil (1:1:1:1, v/v) at a greenhouse. Growing conditions and other details were same as in Example 1a. […] After 2 days of chilling treatment at the same conditions as in Example 1a , plants were transferred to a growth chamber maintained at 23±2° C. temperature and 16 hour photoperiod with 400 μmol […] of fluorescent light intensity.

[4] = system: castor bean (Ricinus communis L. cv Hale)
[5] = system: Sweet corn seeds (SS Jubilee); test: Germination and seedling fresh mass of sweet corn seeds soaked in LPE solution; details: soaked 2 hours
Method: Sweet corn seeds (SS Jubilee, certified seed obtained from the Wisconsin Crop Improvement Association, Madison Wis.) were soaked for 2 hours in LPE solution. Seeds were removed from the LPE solution and 50 seeds were placed on 2 paper towels and wetted with distilled water (5 seeds in one row) then seeds were covered with another wet paper towel. The three towels with the seeds were rolled, placed in a metal container and incubated at 25° C. The container was covered with plastic and the cover secured with a rubber band. The germination percentage was tested after 4 and 7 days. The procedure was as specified by the Association of Official Seed Analysts. Four replications were conducted with 50 seeds in each replication. […] Furthermore, LPE treated seeds produced larger (root and shoot) seedlings. SS Jubilee sweet corn seeds were soaked for 2 hours in LPE solution. Seeds were incubated using the same procedure described in Example 6. The germination percentage was tested after 4 and 7 days. Four replications were conducted with 50 seeds in each replication. […] On a commercial level, this means that LPE treatment of the seeds will insure more plants in a given field and that LPE treated seeds will produce plants having a head start.

H.2350 field corn seeds = test: Germination and seedling fresh weight of field corn seeds soaked in LPE solution; details: incubated at 25° C. for 8 days
Method: H.2350 (Certified seed obtained from the Wisconsin Crop Improvement Association, Madison, Wis.) field corn seeds were soaked in LPE solution. Seeds were incubated at 25° C. for 8 days using the procedure described in Example 6. Four replications were conducted with 50 seeds in each replication.

'Hazel' oats = test: Germination of 'Hazel' oats soaked in LPE or LPC; details: 10 ppm (each), incubated at 20° C.
Method: ‘Hazel’ oats (Certified seed obtained from the Wisconsin Crop Improvement Association, Madison, Wis.) were soaked in LPE or LPC. Seeds were soaked for either 30 minutes or 2 hours at room temperature (23±2° C.) and then incubated at 20° C. using the official seed germination test rules (Rules for testing seeds are published by the Association of Official Seed Analysts) for testing seeds. Four replications were conducted with 100 seeds in each replication. […] Moreover, a greater proportion of the seeds treated with these lipids, germinated earlier. Thus, this seed treating increased both the rate and amount of seed germination.

[6] = 100 mg/L sprayed before drought and right after water was given, after 2 or 3 days
[7] = 200 mg/L LPEegg spray, 4 days chilling at 4/2° C., vs water-sprayed control
[8] = 200 mg/L sprayed 1 hour before chilling
[9] = 200 mg/L sprayed right after chilling

For `CCCCCCCC/C=C\CCCCCCCC(=O)OCC(O)COP(=O)(O)OCCN` (stereo not drawn) [LPE 18:1], the “shoot growth after drought stress” value (Tomato plants cv. H9478; [6]) was “vigorous shoot growth”, the “shoot growth after drought stress” value (Tomato plants cv. H9478; 100 mg/L, 7 days after drought stress was alleviated (FIG. 2)) was “vigorous shoot growth” and the “shoot growth after pesticide injury” value (Tomato Plants cv. H9144 [1]) was “vigorous shoot growth”.
For Lysophosphatidyl choline [LPC], the “Root fresh wt per seedling” value ('Hazel' oat seeds) was 40.4 ± 2.7 mg, the “Shoot Fresh wt per seedling” value ('Hazel' oat seeds) was 108.9 ± 4.5 mg and the “Root fresh wt per seedlings” value ('Hazel' oat seeds) was 48.9 ± 0.7 mg. For the same compound, the “Shoot Fresh wt per seedlings” value ('Hazel' oat seeds) was 130.4 ± 2.7 mg.
In the case of lysophosphatidylethanolamine [LPE], the “protection from chilling injury” value (Tomato Plants cv. H9144 [2]; 100 mg/L LPEegg sprayed 1 hour before chilling, vs water-sprayed and non-sprayed controls) is reported as “most effective in protecting the plant from chilling injury”, the “chilling damage to the leaves” value (Tomato Plants cv. H9144 [2]; [7]) is reported as “mitigation of chilling damage to the leaves” and the “shoot meristem growth after chilling” value (Tomato Plants cv. H9144 [2]; [7]) is reported as “enhanced shoot meristem growth”. For the same compound, the “Leaf Chlorophyll Mean ± SE” value (Tomato Plants cv. H9144 [2]; [8]) was 21.6 ± 0.1 mg/g dry wt, the “Leaf Phospholipids Mean ± SE” value (Tomato Plants cv. H9144 [2]; [8]) was 25.9 ± 0.3 nmol/mg dry wt and the “Leaf Water (fresh/dry wt ratio) Mean ± SE” value (Tomato Plants cv. H9144 [2]; [8]) was 10.1 ± 0.4 fresh/dry wt ratio. For the same compound, the “Leaf Chlorophyll Mean ± SE” value (Tomato Plants cv. H9144 [2]; [9]) was 28.2 ± 4.0 mg/g dry wt, the “Leaf Phospholipids Mean ± SE” value (Tomato Plants cv. H9144 [2]; [9]) was 25.7 ± 1.0 nmol/mg dry wt and the “Leaf Water (fresh/dry wt ratio) Mean ± SE” value (Tomato Plants cv. H9144 [2]; [9]) was 10.81 ± 0.5 fresh/dry wt ratio. The “chilling damage in leaves” value [3] was “severe chilling damage in leaves”, the “shoot growth after chilling” value ([3]; after 7 days) was “vigorous shoot growth” and the “shoot growth after drought stress” value (Tomato plants cv. H9478; [6]) was “vigorous shoot growth”. For the same compound, the “leaf curling and browning after wounding” value ([4]; after 1 day) was “much less leaf curling and browning”, the “leaf turgidity after wounding” value ([4]; in vivo) was “remained turgid for several days” and the wound-healing symptoms ([4]; in vivo) was “leaf damaged areas were healed and gained green color”. For the same compound, the “Average Fresh Mass Produced from 50 seeds, Root (primary + secondary)” value ([5]; Table 2, 5 ppm) was 1.6 ± 0.4 g, the “Average Fresh Mass Produced from 50 seeds, Shoot” value ([5]; Table 2, 5 ppm) was 10.0 ± 0.5 g and the “% Germination After 4 days” value ([5]; Table 2, 5 ppm, 25° C.) was 61.0 ± 1.7%. The “% Germination After 7 days” value ([5]; Table 2, 5 ppm, 25° C.) was 70.0 ± 2.2%, the “Average Fresh Mass Produced from 50 seeds, Root (primary + secondary)” value ([5]; Table 2, 10 ppm) was 1.3 ± 0.1 g and the “Average Fresh Mass Produced from 50 seeds, Shoot” value ([5]; Table 2, 10 ppm) was 8.7 ± 0.2 g. For the same compound, the “% Germination After 4 days” value ([5]; Table 2, 10 ppm, 25° C.) was 69.0 ± 2.6%, the “% Germination After 7 days” value ([5]; Table 2, 10 ppm, 25° C.) was 71.5 ± 2.8% and the “Average Fresh Mass Produced from 50 seeds, Root (primary + secondary)” value ([5]; Table 2, 20 ppm) was 1.2 ± 0.0 g. The “Average Fresh Mass Produced from 50 seeds, Shoot” value ([5]; Table 2, 20 ppm) was 10.4 ± 0.4 g, the “% Germination After 4 days” value ([5]; Table 2, 20 ppm, 25° C.) was 60.0 ± 3.6% and the “% Germination After 7 days” value ([5]; Table 2, 20 ppm, 25° C.) was 65.0 ± 1.3%. For the same compound, the “% Germination After 4 days” value ([5]; Table 3 (Example 7), 1 ppm) was 68.5 ± 4.0%, the “% Germination After 7 days” value ([5]; Table 3 (Example 7), 1 ppm) was 76.5 ± 4.6% and the “Average Fresh Mass Produced from 50 seeds, Root (primary + secondary)” value ([5]; Table 3 (Example 7), 1 ppm) was 0.9 ± 0.1 g. The “Average Fresh Mass Produced from 50 seeds, Shoot” value ([5]; Table 3 (Example 7), 1 ppm) was 9.1 ± 0.8 g, the “% Germination After 4 days” value ([5]; Table 3 (Example 7), 10 ppm) was 61.5 ± 5.7% and 73.8 ± 2.8% and the “% Germination After 7 days” value ([5]; Table 3 (Example 7), 10 ppm) was 68.0 ± 3.4% and 78.0 ± 2.3%. The “Average Fresh Mass Produced from 50 seeds, Root (primary + secondary)” value ([5]; Table 3 (Example 7), 10 ppm) was 0.8 ± 0.0 g and 1.1 ± 0.1 g, the “Average Fresh Mass Produced from 50 seeds, Shoot” value ([5]; Table 3 (Example 7), 10 ppm) was 7.6 ± 0.3 g and 10.4 ± 0.4 g and the “% Germination” value (H.2350 field corn seeds; 5 ppm) was 97.0 ± 0.6%. For the same compound, the “Fresh Weight Root (primary + secondary), average mass produced from 50 seeds” value (H.2350 field corn seeds; 5 ppm) was 14.2 ± 0.8 g, the “Fresh Weight Shoot, average mass produced from 50 seeds” value (H.2350 field corn seeds; 5 ppm) was 16.2 ± 0.6 g and the “% Germination” value (H.2350 field corn seeds; 10 ppm) was 98.5 ± 1.0%. The “Fresh Weight Root (primary + secondary), average mass produced from 50 seeds” value (H.2350 field corn seeds; 10 ppm) was 13.6 ± 0.3 g, the “Fresh Weight Shoot, average mass produced from 50 seeds” value (H.2350 field corn seeds; 10 ppm) was 15.6 ± 0.7 g and the “% Germination (Mean ± SE) After 4 days” value ('Hazel' oats; soaked 30 min) was 87.7 ± 0.9% and 82.5 ± 1.7%. The “% Germination (Mean ± SE) After 10 days” value ('Hazel' oats; soaked 30 min) was 91.3 ± 0.7% and 90.8 ± 1.1%, the “% Germination (Mean ± SE) After 4 days” value ('Hazel' oats; soaked 2 hours) was 82.8 ± 1.1% and 82.0 ± 1.2% and the “% Germination (Mean ± SE) After 10 days” value ('Hazel' oats; soaked 2 hours) was 94.3 ± 1.3% and 93.5 ± 1.0%. For the same compound, the “Root fresh wt per seedling” value ('Hazel' oat seeds) was 48.4 ± 1.9 mg, the “Shoot Fresh wt per seedling” value ('Hazel' oat seeds) was 124.1 ± 3.0 mg and the “Root fresh wt per seedlings” value ('Hazel' oat seeds) was 46.4 ± 0.6 mg. The “Shoot Fresh wt per seedlings” value ('Hazel' oat seeds) was 121.1 ± 2.5 mg.
With lysophosphatidylinositol [LPI] the “shoot growth after pesticide injury” value (Tomato Plants cv. H9144 [1]) was “vigorous shoot growth”.
